Target: human calcitonin receptor (CTR) and RAMP3 (AMY3) in COS-7 cells (Homo sapiens, UniProt O60896+P30988)
Assay: Amylin Receptor cAMP Assay I
Assay type: cell-based
Settings: values marked *: Amylin Receptor cAMP Assay I; COS-7/AMY3 cells; read-out: Amylin Receptor cAMP Stimulation Activity: EC50
From the text: Amylin Receptor cAMP Assay I
AMYRs are heterodimers of the class B calcitonin (CT) G-protein-coupled receptor (CTR) and receptor activity-modifying proteins (RAMPs). All three RAMPs can interact with the CTR and form AMY1, AMY2, AMY3 with RAMP1, RAMP2 and RAMP3, respectively. Like other class B1 GPCRs, the CT receptor family is canonically coupled to Gs-mediated cAMP production, and measurement of cAMP accumulation has been the primary assay used to determine peptide selectivity and potency.
To optimize functional activity directed toward Gas coupling, COS-7 cells were stably transfected with human calcitonin receptor (CTR) and RAMP3, simultaneously. 100× concentration of compound working solutions were prepared (Agilent Technologies Bravo) with 4-fold serial dilution in 384-well Echo LDV plate (Labcyte, Cat #LP-0200). 100 nL/well 100× concentration of compound working solutions were moved to 384-well white low volume plate (Greiner, Cat #784075) using Labcyte ECHO550. 1×10^5 cells/mL COS-7/CTR or COS-7/AMY3 (HD Biosciences) cell suspensions prepared with assay buffer [DPBS containing 0.5 mM IBMX (Sigma, Cat #15879) and 0.1% BSA (GENVIEW, Cat #FA016-100 g)], 10 μL cell suspensions were added to each well of previous generated assay plate which already contains 100 nL compound at 100× concentration using ThermoFisher Multidrop Combi (1000 cells/well). Seal the plate and incubate at 37° C. with 5% CO2 for 30 min.
After incubation, the cAMP assay signal was generated using cAMP Hi-range Kit (Cisbio). 5 μL cAMP-d2 working solution was added to each well, followed by 5 μL Anti-cAMP antibody-cryptate working solution which was added to each well using ThermoFisher Multidrop Combi. The samples were then incubated at room temperature for 1 hour protected from light. the fluorescence was read at 665 and 615 nm with Reader PerkinElmer EnVision.

human calcitonin receptor (CTR) and RAMP3 (AMY3) in COS-7 cells, sequence (P30988 25-474): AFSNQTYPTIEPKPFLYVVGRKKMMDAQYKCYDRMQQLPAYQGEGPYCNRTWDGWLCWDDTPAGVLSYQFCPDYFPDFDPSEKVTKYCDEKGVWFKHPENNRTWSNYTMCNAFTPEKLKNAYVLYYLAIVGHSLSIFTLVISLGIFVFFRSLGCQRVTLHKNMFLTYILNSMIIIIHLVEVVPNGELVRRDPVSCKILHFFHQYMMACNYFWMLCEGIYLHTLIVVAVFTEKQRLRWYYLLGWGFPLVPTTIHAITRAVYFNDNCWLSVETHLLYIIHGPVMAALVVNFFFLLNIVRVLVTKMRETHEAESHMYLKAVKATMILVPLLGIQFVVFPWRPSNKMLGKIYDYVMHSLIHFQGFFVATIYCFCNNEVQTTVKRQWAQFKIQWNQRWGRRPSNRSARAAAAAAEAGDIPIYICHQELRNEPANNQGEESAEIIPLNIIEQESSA
human calcitonin receptor (CTR) and RAMP3 (AMY3) in COS-7 cells, sequence (O60896 24-148): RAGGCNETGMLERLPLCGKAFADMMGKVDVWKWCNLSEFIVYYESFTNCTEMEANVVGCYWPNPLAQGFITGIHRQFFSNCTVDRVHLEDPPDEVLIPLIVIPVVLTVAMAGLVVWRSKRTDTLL

EC50 [nM]	Compound
162	Cc1nnc(-c2c(CCc3ccc(F)cc3)nc(CC(C)C)c(C(N)=O)c2-c2ccc(C(=O)NCc3ccc(F)c(F)c3)o2)o1 [Compound 128, N-(3,4-difluorophenyl)methyl-5-{5-carbamoyl-2-[2-(p-fluorophenyl)ethyl]-6-isobutyl-3-(5-methyl-1,3,4-oxadiazol-2-yl)-4-pyridyl}-2-furamide]
1.3	Cc1nnc(-c2c(CCc3ccc(F)cc3)nc(CC(C)C)c(C(N)=O)c2-c2cc3cccc(N[C@@H]4CCc5ccccc54)c3s2)o1 [Compound 137, (R)-4-(7-((2,3-dihydro-1H-inden-1-yl)amino)benzo[b]thiophen-2-yl)-6-(4-fluorophenethyl)-2-isobutyl-5-(5-methyl-1,3,4-oxadiazol-2-yl)nicotinamide]
9320	Cc1nnc(-c2c(CN3Cc4ccccc4C3=O)nc(CC(C)C)c(C(N)=O)c2-c2ccc(C(=O)NCc3ccc(F)c(F)c3)s2)o1 [Compound 181]
208	CC(C)Cc1nc(CCc2ccc(F)cc2)c(-c2nnc(C(F)(F)F)o2)c(-c2ccc(C(=O)NCc3ccc(F)c(F)c3)s2)c1C(N)=O [Compound 148, N-(3,4-difluorophenyl)methyl-5-{5-carbamoyl-2-[2-(p-fluorophenyl)ethyl]-6-isobutyl-3-[5-(trifluoromethyl)-1,3,4-oxadiazol-2-yl]-4-pyridyl}-2-thenamide]
26	Cc1cc(-c2c(CCc3ccc(F)cc3)nc(CC(C)C)c(C(N)=O)c2-c2ccc(C(=O)NCc3ccc(F)c(F)c3)s2)ccn1 [Compound 160]
> 1000	CCc1nc(CC(C)C)c(C(N)=O)c(-c2ccc(C(=O)NCc3ccc(F)c(F)c3)cc2)c1-c1nnc(C)o1 [Compound 199, 4-(4-((3,4-difluorobenzyl)carbamoyl)phenyl)-6-ethyl-2-isobutyl-5-(5-methyl-1,3,4-oxadiazol-2-yl)nicotinamide]
1200	Cc1cc(CNc2nccc3cc(-c4c(C(N)=O)c(CC(C)C)nc(CCc5ccc(F)cc5)c4-c4nnc(C)o4)sc23)ccn1 [Compound 156]
2.5	Cc1nnc(-c2c(CCc3ccc(F)cc3)nc(CC(C)C)c(C(N)=O)c2-c2cc3ncnc(NCc4ccc(F)c(F)c4)c3s2)o1 [Compound 132, 4-(4-((3,4-difluorobenzyl)amino)thieno[3,2-d]pyrimidin-6-yl)-6-(4-fluorophenethyl)-2-isobutyl-5-(5-methyl-1,3,4-oxadiazol-2-yl)nicotinamide]
122	Cc1nc(-c2c(CCc3ccc(F)cc3)nc(CC(C)C)c(C(N)=O)c2-c2ccc(C(=O)NCc3ccc(F)c(F)c3)s2)co1 [Compound 169, 4-(5-((3,4-difluorobenzyl)carbamoyl)thiophen-2-yl)-6-(4-fluorophenethyl)-2-isobutyl-5-(2-methyloxazol-4-yl)nicotinamide]
39900	Cc1ccc(CCc2nc(CC(C)C)c(C(N)=O)c(-c3ccc(C(=O)N[C@@H]4CCc5ncccc54)s3)c2-c2nnc(C)o2)nc1 [Compound 195, (R)-4-(5-((6,7-dihydro-5H-cyclopenta[b]pyridin-5-yl)carbamoyl)thiophen-2-yl)-2-isobutyl-5-(5-methyl-1,3,4-oxadiazol-2-yl)-6-(2-(5-methylpyridin-2-yl)ethyl)nicotinamide]
212	Cc1nnc(-c2c(CCc3ccc(F)cc3)nc(CC(C)C)c(C(N)=O)c2-c2ncc(C(=O)NCc3ccc(F)c(F)c3)s2)o1 [Compound 125, N-(3,4-difluorophenyl)methyl-2-{5-carbamoyl-2-[2-(p-fluorophenyl)ethyl]-6-isobutyl-3-(5-methyl-1,3,4-oxadiazol-2-yl)-4-pyridyl}-1,3-thiazole-5-carboxamide]
> 1000	CO[C@H]1CCCN(C(=O)c2ccc(-c3c(C(N)=O)c(CC(C)C)nc(CCc4ccc(F)cc4)c3-c3nnc(C)o3)s2)C1 [Compound 166]
> 1000	CO[C@@H]1CCCN(C(=O)c2ccc(-c3c(C(N)=O)c(CC(C)C)nc(CCc4ccc(F)cc4)c3-c3nnc(C)o3)s2)C1 [Compound 165]
211	Cc1nnc(-c2c(COc3ccc(F)cc3)nc(CC(C)C)c(C(N)=O)c2-c2cc3ccnc(N[C@@H]4CCc5ccccc54)c3s2)o1 [Compound 175, (R)-4-(7-((2,3-dihydro-1H-inden-1-yl)amino)thieno[2,3-c]pyridin-2-yl)-6-((4-fluorophenoxy)methyl)-2-isobutyl-5-(5-methyl-1,3,4-oxadiazol-2-yl)nicotinamide]
74.1	Cc1nnc(-c2c(Cc3ccc(F)cc3)nc(CC(C)C)c(C(N)=O)c2-c2ccc(C(=O)NCc3ccc(F)c(F)c3)s2)o1 [Compound 110, 4-(5-((3,4-difluorobenzyl)carbamoyl)thiophen-2-yl)-6-(4-fluorobenzyl)-2-isobutyl-5-(5-methyl-1,3,4-oxadiazol-2-yl)nicotinamide]
37.2	Cc1nnc(-c2c(CCc3ccc(F)cc3)nc(CC(C)C)c(C(N)=O)c2-c2ccc(C(=O)N[C@@H]3CCc4ncccc43)s2)o1 [Compound 123, (R)-4-(5-((6,7-dihydro-5H-cyclopenta[b]pyridin-5-yl)carbamoyl)thiophen-2-yl)-6-(4-fluorophenethyl)-2-isobutyl-5-(5-methyl-1,3,4-oxadiazol-2-yl)nicotinamide]
1080	Cc1nnc(-c2c(CC(C)c3ccc(F)cc3)nc(CC(C)C)c(C(N)=O)c2-c2ccc(C(=O)N[C@@H]3CCc4ncccc43)s2)o1 (stereo partly drawn) [Compound 191, 4-(5-(((R)-6,7-dihydro-5H-cyclopenta[b]pyridin-5-yl)carbamoyl)thiophen-2-yl)-6-(2-(4-fluorophenyl)propyl)-2-isobutyl-5-(5-methyl-1,3,4-oxadiazol-2-yl)nicotinamide]
40	Cc1nnc(-c2c(COc3ccc(F)cc3)nc(CC(C)C)c(C(N)=O)c2-c2cc3ccnc(NCc4ccc(F)c(F)c4)c3s2)o1 [Compound 163]
242	Cc1nnc(-c2c(CCc3ccc(F)cc3)nc(CC(C)C)c(C(N)=O)c2-c2cc3ccnc(NCc4ccncc4)c3s2)o1 [Compound 202, 6-(4-fluorophenethyl)-2-isobutyl-5-(5-methyl-1,3,4-oxadiazol-2-yl)-4-(7-((pyridin-4-ylmethyl)amino)thieno[2,3-c]pyridin-2-yl)nicotinamide]
19.1	Cc1nnc(-c2c(CCc3ccc(F)cc3)nc(CC(C)C)c(C(N)=O)c2-c2ccc(C(=O)NCc3ccc(F)c(F)c3)s2)s1 [Compound 149, N-(3,4-difluorophenyl)methyl-5-{5-carbamoyl-2-[2-(p-fluorophenyl)ethyl]-6-isobutyl-3-(5-methyl-1,3,4-thiadiazol-2-yl)-4-pyridyl}-2-thenamide]
1140	Cc1nnc(-c2c(CC3(c4ccc(F)cc4)CC3)nc(CC(C)C)c(C(N)=O)c2-c2ccc(C(=O)NCc3ccc(F)c(F)c3)s2)o1 [Compound 172, 4-(5-((3,4-difluorobenzyl)carbamoyl)thiophen-2-yl)-6-((1-(4-fluorophenyl)cyclopropyl)methyl)-2-isobutyl-5-(5-methyl-1,3,4-oxadiazol-2-yl)nicotinamide]
> 1000	Cc1nnc(-c2c(CC3CC3(F)F)nc(CC(C)C)c(C(N)=O)c2-c2ccc(C(=O)NCc3ccc(F)c(F)c3)s2)o1 (centres unmarked) [Compound 192, 4-(5-((3,4-difluorobenzyl)carbamoyl)thiophen-2-yl)-6-((2,2-difluorocyclopropyl)methyl)-2-isobutyl-5-(5-methyl-1,3,4-oxadiazol-2-yl)nicotinamide]
13	Cc1nnc(-c2c(CCc3ccc(F)cc3)nc(CC(C)C)c(C(N)=O)c2-c2cc3ccnc(N[C@@H]4CCc5ncccc54)c3s2)o1 [Compound 161]

Reference: patent US20250042916A1 (ACONCAGUA BIO, INC., priority 2023, published 2025)
